This note sets out measurements from patent US9452225B2, “GLP-1 prodrugs” (Novo Nordisk A/S, priority 2012, dated 2016).

For experiment [1], the target named is T1, human GLP-1 receptor (Homo sapiens, UniProt P43220).
T1 construct: expressed in transfected cells; host or cells: BHK cells, clone FCW467-12A (parent line BHKTS13), membranes
Briefly: GLP-1 receptor binding, SPA displacement of 125I-GLP-1, low albumin. Conditions: low albumin (0.005% HSA). The method, then:
The purpose of this experiment is to test the receptor binding activity of the GLP-1 parent drugs of the prodrugs of the invention. The receptor binding is a measure of affinity of a parent drug for the human GLP-1 receptor. The parent GLP-1 drugs of Examples B2.1, B2.2, B2.3, B2.4, and B2.5 were tested as described below.
The receptor binding of the GLP-1 drugs to the human GLP-1 receptor was measured in a competitive binding assay. In this type of assay a labelled ligand (in this case ^125I-GLP-1) is bound to the receptor. Each drug is added in a series of concentrations to isolated membranes containing the human GLP-1 receptor and displacement of the labelled ligand is monitored. The receptor binding is reported as the concentration at which half of the labelled ligand is displaced from the receptor, the IC50 value. […]
The cells were grown at 5% CO2 in DMEM, 10% fetal calf serum, 1% Pen/Strep (Penicillin/Streptomycin) and 1.0 mg/ml of the selection marker G418. […] The resulting pellet was re-suspended in buffer 2 and the protein concentration was determined. […]

For experiment [2], the target named is T1, human GLP-1 receptor. Briefly: In vitro potency, CRE luciferase reporter gene assay in whole BHK cells. In kind it is cell-based. Conditions: 0% HSA. On the procedure: The purpose of this example is to test the activity, or potency, of, for example, the GLP-1 parent drugs of the prodrugs of the invention. The in vitro potency is the measure of human GLP-1 receptor activation in a whole cell assay. This method is an alternative to the method of Example 8.
In vitro potency was determined by measuring the response of the human GLP-1 receptor in a reporter gene assay. The assay was performed in a stably transfected BHK cell line that expresses the human GLP-1 receptor and contains the DNA for the cAMP response element (CRE) coupled to a promoter and the gene for firefly luciferase (CRE luciferase). When the human GLP-1 receptor is activated it results in the production of cAMP, which in turn results in the luciferase protein being expressed. When assay incubation is completed the luciferase substrate (luciferin) is added and the enzyme converts luciferin to oxyluciferin to produce bioluminescence. The luminescence is measured as the readout for the assay.
In order to test the binding of the derivatives to albumin, the assay may if desired be performed in the absence of serum albumin as well as in the presence of a considerably higher concentration of serum albumin (1.0% final assay concentration). […]
3) The cells were counted and adjusted to 5×10^3 cells/50 μl (1×10^5 cells/ml) in Assay Medium. […]
(A reporter such as luciferase makes a cellular process visible.)

Molecules are shown by their SMILES. Numbered stars: 1 amine (or outer) side, 2 acyl side, 3 side chain; on linkers, the order of the positions; unused ones are H or OH. Square brackets hold non-standard residues; d marks the D form. Side chains are listed from the residue outwards. Peptide text beside a SMILES is read from it. * marks the point of attachment. Lactoyl(3-(imidazol-4-yl)) = O=C([C@@H](O)Cc1c[nH]cn1)*; C18 diacid = O=C(O)CCCCCCCCCCCCCCCCC(=O)*; γGlu = O=C(O)[C@H](CCC(=O)[*:2])N[*:1]; AEEA = NCCOCCOCC(=O)O; Aib = CC(C)(N)C(=O)O

T1 sequence (P43220 24-463): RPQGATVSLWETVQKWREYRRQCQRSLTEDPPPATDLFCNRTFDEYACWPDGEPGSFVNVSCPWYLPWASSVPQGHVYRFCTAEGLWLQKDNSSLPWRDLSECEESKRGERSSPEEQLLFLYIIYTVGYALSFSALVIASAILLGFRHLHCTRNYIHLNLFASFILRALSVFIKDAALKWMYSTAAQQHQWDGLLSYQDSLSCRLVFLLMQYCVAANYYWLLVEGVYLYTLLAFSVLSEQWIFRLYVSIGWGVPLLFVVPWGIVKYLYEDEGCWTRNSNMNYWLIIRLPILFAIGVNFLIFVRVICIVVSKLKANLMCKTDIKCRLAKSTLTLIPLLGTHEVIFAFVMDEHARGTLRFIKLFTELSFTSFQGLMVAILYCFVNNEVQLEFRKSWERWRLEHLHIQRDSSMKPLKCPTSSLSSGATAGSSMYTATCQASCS

The term IC50 denotes the concentration at which inhibition is half-maximal. As a reminder, the EC50 is the concentration needed to bring the measured effect to its halfway point. The compound `CC[C@H](C)[C@H](NC(=O)[C@H](Cc1ccccc1)NC(=O)[C@H](CCC(=O)O)NC(=O)[C@H](CCCCNC(=O)COCCOCCNC(=O)COCCOCCNC(=O)CC[C@H](NC(=O)CCCCCCCCCCCCCCCCC(=O)O)C(=O)O)NC(=O)[C@H](C)NC(=O)[C@H](C)NC(=O)[C@H](CCCNC(=N)N)NC(=O)CNC(=O)[C@H](CCC(=O)O)NC(=O)[C@H](CC(C)C)NC(=O)[C@H](Cc1ccc(O)cc1)NC(=O)[C@H](CO)NC(=O)[C@H](CO)NC(=O)[C@@H](NC(=O)[C@H](CC(=O)O)NC(=O)[C@H](CO)NC(=O)[C@@H](NC(=O)[C@H](Cc1ccccc1)NC(=O)[C@@H](NC(=O)CNC(=O)[C@H](CCC(=O)O)NC(=O)C(C)(C)NC(=O)[C@@H](O)Cc1c[nH]cn1)[C@@H](C)O)[C@@H](C)O)C(C)C)C(=O)N[C@@H](C)C(=O)N[C@@H](Cc1c[nH]c2ccccc12)C(=O)N[C@@H](CC(C)C)C(=O)N[C@H](C(=O)N[C@@H](CCCNC(=N)N)C(=O)NCC(=O)N[C@@H](CCCNC(=N)N)C(=O)NCC(=O)O)C(C)C` [Example B2.5, N^ε26 [(S)-(22,40-dicarboxy-10,19,24-trioxo-3,6,12,15-tetraoxa-9,18,23-triazatetracontan-1-oyl)]-N^α8-{3-[(2S)-2-hydroxy-3-(1H-imidazol-4-yl)propanoyl}-Aib^8,Arg^23,Arg^34]-GLP-1-(8-37)-peptide] ({Lactoyl(3-(imidazol-4-yl))}-[Aib]EGTFTSDVSSYLEGRAAK([AEEA-AEEA-γGlu-C18 diacid])EFIAWLVRGRG-OH; C-terminus assumed) returned an IC50 at human GLP-1 receptor [1] of 0.22 nM. Also, a half-maximal effect at human GLP-1 receptor [2] (EC50) was put at 31 pM.
Regarding `CC[C@H](C)[C@H](NC(=O)[C@H](Cc1ccccc1)NC(=O)[C@H](CCCCNC(=O)COCCOCCNC(=O)COCCOCCNC(=O)CC[C@H](NC(=O)CCCCCCCCCCCCCCCCC(=O)O)C(=O)O)NC(=O)[C@H](CCCNC(=N)N)NC(=O)[C@H](C)NC(=O)[C@H](C)NC(=O)[C@H](CCC(N)=O)NC(=O)[C@H](CCC(=O)O)NC(=O)[C@H](CCC(=O)O)NC(=O)[C@H](CC(C)C)NC(=O)[C@H](Cc1ccc(O)cc1)NC(=O)[C@H](CO)NC(=O)[C@H](CO)NC(=O)[C@@H](NC(=O)[C@H](CC(=O)O)NC(=O)[C@H](CO)NC(=O)[C@@H](NC(=O)[C@H](Cc1ccccc1)NC(=O)[C@@H](NC(=O)CNC(=O)[C@H](CCC(=O)O)NC(=O)C(C)(C)NC(=O)[C@@H](O)Cc1c[nH]cn1)[C@@H](C)O)[C@@H](C)O)C(C)C)C(=O)N[C@@H](C)C(=O)N[C@@H](Cc1c[nH]c2ccccc12)C(=O)N[C@@H](CC(C)C)C(=O)N[C@H](C(=O)N[C@@H](CCCNC(=N)N)C(=O)NCC(=O)N[C@@H](CCCNC(=N)N)C(=O)NCC(=O)O)C(C)C` [Example B2.4, N^ε27 [(S)-(22,40-dicarboxy-10,19,24-trioxo-3,6,12,15-tetraoxa-9,18,23-triazatetracontan-1-oyl)]-N^α8-{3-[(2S)-2-hydroxy-3-(1H-imidazol-4-yl)propanoyl}-Aib^8,Glu^22,Arg^26,Lys^27,Arg^34]-GLP-1-(8-37)-peptide] ({Lactoyl(3-(imidazol-4-yl))}-[Aib]EGTFTSDVSSYLEEQAARK([AEEA-AEEA-γGlu-C18 diacid])FIAWLVRGRG-OH; C-terminus assumed), the concentration for half-maximal inhibition (IC50) at human GLP-1 receptor [1] came out at 0.09 nM. Further, the EC50 on human GLP-1 receptor [2] was determined as 4 pM.
